This is an account of results in patent US10052320B2, “Substituted quinoxalines as FGFR kinase inhibitors” (ASTEX THERAPEUTICS LIMITED, priority 2011, dated 2018).

SMILES strings stand for the structures. Structures can show the parent of a compound that is named as a salt.

`COCC(CN(c1cc(OC)cc(OC)c1)c1ccc2ncc(-c3cccnc3)nc2c1)OC(C)=O` (single isomer, unassigned) (as salt: HCl) (hydrate or solvate) [Compound 76] returned a melting point of 80 °C.

Regarding `COc1cc(OC)cc(N(CCNC(C)C)c2ccc3ncc(-c4cccnc4)nc3c2)c1` (as salt: HCl) (hydrate or solvate) [Compound 10], the melting point was found to be 174 °C.

The compound `COc1cc(OC)cc(N(CCNC(C)C)c2ccc3ncc(-c4ccn[nH]4)nc3c2)c1` (as salt: HCl) [Compound 189] had a melting point of 145 °C.

`COc1cc(OC)cc(N(CCNC(C)C)c2ccc3ncc(C(=O)N4CCCCC4)nc3c2)c1` (as salt: HCl) (hydrate or solvate) [Compound 180] gave a melting point of 236 °C.

`COc1cc(OC)cc(N(CCNC(C)C)c2ccc3ncc(N4CCC(CN)CC4)nc3c2)c1` (as salt: HCl) (hydrate or solvate) [Compound 67] returned a melting point of 193 °C.

In turn, `COc1cc(OC)cc(N(CCCNCC(F)(F)F)c2ccc3ncc(-c4ccn(C)c4)nc3c2)c1` (as salt: HCl) [Compound 5] had a melting point of 186 °C.

`COc1cc(OC)cc(N(CCNC(C)C)c2ccc3ncc(-c4ccn(C)c4)nc3c2)c1` (as salt: HCl) [Compound 8]: the melting point came out at 200 °C.

In turn, `COc1cc(OC)cc(N(CCN2C(=O)c3ccccc3C2=O)c2ccc3ncc(-c4ccc(N)nc4)nc3c2)c1` [Compound 57] displayed a melting point of 222 °C.

`COc1cc(OC)cc(N(CCNC(C)C)c2ccc3ncc(-n4cnc(CO)c4)nc3c2)c1` (as salt: HCl) (hydrate or solvate) [Compound 77] yielded a melting point of 150 °C.

In turn, `COc1cc(OC)cc(N(CC2CC2)c2ccc3ncc(-n4ccnc4C)nc3c2)c1` (as salt: HCl) [Compound 32] yielded a melting point of 223 °C.

`COc1cc(OC)cc(N(CCNC(C)C)c2ccc3ncc(-c4ccnc(C(=O)NCCCN)c4)nc3c2)c1` (as salt: HCl) (hydrate or solvate) [Compound 146] gave a melting point of 188 °C.

As to `COc1cc(OC)cc(N(CCNC(C)C)c2ccc3ncc(-c4ccccc4)nc3c2)c1` (as salt: HCl) (hydrate or solvate) [Compound 121], the melting point was 149 °C.

In turn, `COc1cc(OC)cc(N(CC2CC2)c2ccc3ncc(-c4ccc5c(ccn5C)c4)nc3c2)c1` (as salt: HCl) (hydrate or solvate) [Compound 20] came in with a melting point of 105 °C.

In turn, `COc1cc(OC)cc(N(CC2CC2)c2ccc3ncc(-c4ccn[nH]4)nc3c2)c1` (as salt: HCl) [Compound 58] showed a melting point of 134 °C.

Compound `COc1cc(OC)cc(N(CCCNCC(F)(F)F)c2ccc3ncc(C(=O)NCCN4CCOCC4)nc3c2)c1` (as salt: HCl) (hydrate or solvate) [Compound 158] yielded a melting point of 138 °C.

`COc1cc(OC)cc(N(CCNC(C)C)c2ccc3ncc(C(=O)N4CCOCC4)nc3c2)c1` (as salt: HCl) (hydrate or solvate) [Compound 181]: the melting point is 255 °C.

In turn, `COc1cc(OC)cc(N(CCNC(C)C)c2ccc3ncc(C(=O)NCCCN4CCN(C)CC4)nc3c2)c1` (as salt: HCl) (hydrate or solvate) [Compound 159] returned a melting point of 176 °C.

`COc1cc(OC)cc(N(CCNC(C)C)c2ccc3ncc(C(=O)N4CCN(C)CC4)nc3c2)c1` (as salt: HCl) (hydrate or solvate) [Compound 179] yielded a melting point of 250 °C.

Regarding `COc1cc(OC)cc(N(Cc2cccc(CN)n2)c2ccc3ncc(-c4ccc(N)nc4)nc3c2)c1` (as salt: HCl) [Compound 51], the melting point turned out to be 170 °C.

In the case of `COc1cc(OC)cc(N(CCNC(C)C)c2ccc3ncc(C(=O)NCCN4CCOCC4)nc3c2)c1` (as salt: HCl) (hydrate or solvate) [Compound 160], the melting point worked out at 149 °C.

In general, melting point refers to the temperature of the solid-liquid transition.
